Laboratory results as given in publication PMC6268022, “Substituted N-Benzylpyrazine-2-carboxamides: Synthesis and Biological Evaluation ^†” (Molecules, 2012).
≈ marks a conversion by molar mass, not a printed value. Where “and” joins values, the source holds several entries; their conditions need not be identical. Equal values may be shown once. Read-outs that look alike come from different tables or passages of the source.

Experiments:
[1] = HPLC lipophilicity determination (capacity factor k / log k); settings: RP-HPLC, C18, MeOH 70%/H2O 30%, 30 °C
Description: The separation process was controlled by Agilent ChemStation, version B.04.02 extended by spectral module (Agilent Technologies Inc.). A solution of MeOH (HPLC grade, 70%) with H2O (HPLC-Milli-Q Grade, 30%) was used as mobile phase. The total flow of the column was 1.0 mL/min, injection 20 µL, column temperature 30 °C. 210 nm as detection wavelength and 270 nm as monitor wavelength were chosen. The KI methanol solution was used for the dead time (TD) determination. Retention times (TR) of synthesized compounds were measured in minutes. The capacity factors k were calculated using Microsoft Excel according to formula k = (TR − TD)/TD, where TR is the retention time of the solute and TD denotes the dead time obtained via an unretained analyte. Log k, calculated from the capacity factor k, is used as the lipophilicity index converted to log P scale.

[2] = test system: M. avium CNCTC My 152/73; experiment: In vitro antimycobacterial microdilution panel method; type: cell-based; settings: Mycobacterium avium, 336 h; CNCTC My 152/73, pH 6.0, 14 days
[3] = test system: photosynthetic electron transport (PET) in spinach chloroplasts; experiment: Inhibition of photosynthetic electron transport (oxygen evolution rate) in spinach chloroplasts; type: biochemical, Spinacia oleracea L.; settings: DCPIP photoreduction, pH 7.2
Description: All studied compounds were evaluated for their photosynthetic electron transport (PET) inhibition in spinach chloroplasts, which was reflected in the inhibition of oxygen evolution rate. The photosynthesis-inhibiting activity of the compounds has been expressed as IC50 values. Compounds 4, 5, 7 and 8 were not tested due to their low solubility in tested medium.
Chloroplasts were prepared from spinach (Spinacia oleracea L.) according to Masarovičová and Kráľová [31]. The inhibition of photosynthetic electron transport (PET) in spinach chloroplasts was determined spectrophotometrically (Genesys 6, Thermo Scientific, Madison, WI, USA) using an artificial electron acceptor 2,6-dichlorophenol-indophenol (DCPIP) according to Kráľová et al. and the rate of photosynthetic electron transport (PET) was monitored as a photo-reduction of DCPIP. The measurements were carried out in a phosphate buffer (0.02 mol/L, pH 7.2) containing sucrose (0.4 mol/L), MgCl2 (0.005 mol/L) and NaCl (0.015 mol/L). The chlorophyll content was 30 mg/L in these experiments and the samples were irradiated (~100 W/m^2) from a 10 cm distance with halogen lamp (250 W) using a 4 cm water filter to prevent warming of the samples (suspension temperature 22 °C). The studied compounds were dissolved in DMSO due to their limited water solubility. […] The inhibitory efficiency of the studied compounds was expressed as the IC50 values, i.e., molar concentration of the compounds causing 50% decrease in the oxygen evolution relative to the untreated control.

[4] = test system: M. tuberculosis H37Rv CNCTC My 331/88; experiment: In vitro antimycobacterial microdilution panel method; type: cell-based; settings: Mycobacterium tuberculosis, 336 h
[5] = test system: M. kansasii CNCTC My 235/80; experiment: as above; type: cell-based; settings: Mycobacterium kansasii, 144 h; CNCTC My 235/80, pH 6.0, 6 days
[6] = test system: Trichophyton mentagrophytes 445; experiment: In vitro antifungal microdilution broth method; type: cell-based; settings: RPMI 1640 pH 7.0, 35 °C; for MIC: read-out: TM MIC
Description: The Department of Medical and Biological Sciences at the Faculty of Pharmacy in Hradec Králové, Charles University in Prague, Czech Republic, performed the antifungal susceptibility assays, which was carried out using microdilution broth method. Compounds were dissolved in DMSO and diluted in a twofold manner with RPMI 1640 medium with glutamine buffered to pH 7.0 (3-morpholinopropane-1-sulfonic acid). […] Drug-free controls were included. […] The MICs were determined after 24 and 48 h, respectively after 72 and 120 h for Trichophyton mentagrophytes (TM), of static incubation in dark at 35 °C. Tested species: […]

[7] = test system: M. avium CNCTC My 80/72; experiment: In vitro antimycobacterial microdilution panel method; type: cell-based; settings: Mycobacterium avium, 336 h; CNCTC My 80/72, pH 6.0, 14 days
[8] = test system: photosynthetic electron transport (PET) in spinach chloroplasts; set-up: method as in earlier work; settings: standard, read-out: IC50 (PET inhibition); cited from earlier work
[9] = test system: aromatic amino acids in the proteins of spinach chloroplasts situated in PS 2; experiment: Fluorescence of aromatic amino acids in spinach chloroplasts; type: biochemical, Spinacia oleracea L.; settings: λex = 275 nm, 0-0.11 mmol/L
Text: Figure 4 presents fluorescence emission spectra of aromatic amino acids of untreated spinach chloroplasts and of chloroplasts treated with increasing concentrations of compound 6 (see Figure 4A) as well as dependence of fluorescence intensity of chlorophyll a on concentration of compounds 2 (squares), 11 (triangles) and 6 (circles) (see Figure 4B). Binding of these compounds to aromatic amino acids occurring in photosynthetic proteins contribute to PET inhibition. The fluorescence emission spectra of chlorophyll a (Chla) and aromatic amino acids in spinach chloroplasts were recorded on fluorescence spectrophotometer F-2000 (Hitachi, Tokyo, Japan) using excitation wavelength λex = 436 nm for monitoring fluorescence of Chla and λex = 275 nm for monitoring fluorescence of aromatic amino acids, excitation slit 20 nm and emission slit 10 nm. The samples were kept in the dark 2 min before measuring. The phosphate buffer used for dilution of the chloroplast suspension was the same as described above. Due to low aqueous solubility the compounds were added to a chloroplast suspension in DMSO solution. The DMSO concentration in all samples was the same as in the control (10%). The chlorophyll concentration in chloroplast suspension was 10 mg/L.

[10] = test system: pigment-protein complexes in photosystem 2; experiment: Fluorescence of chlorophyll a in spinach chloroplasts; type: biochemical, Spinacia oleracea L.; settings: λex = 436 nm, 0-0.42 mmol/L
Text: The effects of the studied compounds on the photosynthetic apparatus of spinach chloroplasts were investigated by studying chlorophyll a (Chla) fluorescence. […] The extent of perturbation of chlorophyll a-protein complexes in the thylakoid membrane was reflected as decreased fluorescence of the pigment (see Figure 3B). Similar decrease of Chla fluorescence in plant chloroplasts was also observed previously after treatment with substituted benzanilides and salicyanilides. The fluorescence emission spectra of chlorophyll a (Chla) and aromatic amino acids in spinach chloroplasts were recorded on fluorescence spectrophotometer F-2000 (Hitachi, Tokyo, Japan) using excitation wavelength λex = 436 nm for monitoring fluorescence of Chla and λex = 275 nm for monitoring fluorescence of aromatic amino acids, excitation slit 20 nm and emission slit 10 nm. The samples were kept in the dark 2 min before measuring. The phosphate buffer used for dilution of the chloroplast suspension was the same as described above. Due to low aqueous solubility the compounds were added to a chloroplast suspension in DMSO solution. The DMSO concentration in all samples was the same as in the control (10%). The chlorophyll concentration in chloroplast suspension was 10 mg/L.

[11] = MIC with respect to molecular weight, Šula's medium pH 6.0, 14 days, read-out: MIC M. tuberculosis H37Rv (value in parentheses)
[12] = Šula's medium pH 6.0, 37 °C, 14 days, read-out: MIC M. tuberculosis H37Rv
[13] = Trichophyton mentagrophytes, 445, 72 h, pH 7, evaluated after 72 h
[14] = Trichophyton mentagrophytes, 445, 120 h, pH 7, evaluated after 120 h

| Structure (SMILES) | log k [1] | MIC [2] [µg/mL] | IC50 [3] [µM] | MIC [4, 11] [µM] | MIC [4, 12] [µg/mL] | MIC [5] [µg/mL] | MIC [6, 13] [µM] | MIC [6, 14] [µM] | MIC [7] [µg/mL] | IC50 [8] | fluorescence of aromatic amino acids [9] | chlorophyll a fluorescence emission [10] | TM MIC ([6]; evaluated after 72 h) |
| --- | --- | --- | --- | --- | --- | --- | --- | --- | --- | --- | --- | --- | --- |
| O=C(NCc1ccccc1)c1cnc(Cl)cn1 [Compound 1, N-Benzyl-5-chloropyrazine-2-carboxamide] | 0.1862 | 100 (≈ 404 µM) | 1620 | 100 | 25 | 100 (≈ 404 µM) | 125 (≈ 31 µg/mL) | 125 (≈ 31 µg/mL) | 100 (≈ 404 µM) | – | – | – | – |
| NNC(=O)c1ccncc1 [INH, isoniazid, reference compound] | – | 12.5 (≈ 91.1 µM) | – | 11 | 1.56 | 12.5 (≈ 91.1 µM) | – | – | 12.5 to 25 (≈ 91.1 to 182 µM) | – | – | – | – |
| NC(=O)c1cnccn1 [PZA, pyrazinamide, reference compound] | – | > 100 | – | 50 to 101 | 6.25 to 12.5 | > 100 | – | – | > 100 | – | – | – | – |
| CN(C)C(=O)Nc1ccc(Cl)c(Cl)c1 [DCMU, 3-(3,4-dichlorophenyl)-1,1-dimethylurea] | – | – | – | – | – | – | – | – | – | ~1900 nM and 1900 nM | – | – | – |
| COc1ccc(CNC(=O)c2cncc(Cl)n2)cc1 [Compound 8, 6-Chloro-N-(4-methoxybenzyl)pyrazine-2-carboxamide] | 0.1838 | 50 (≈ 180 µM) | – | 22 | 6.25 | 100 (≈ 360 µM) | 500 (≈ 139 µg/mL) | 500 (≈ 139 µg/mL) | 100 (≈ 360 µM) | – | – | – | – |
| CC(C)(C)c1ncc(C(=O)NCc2cccc(C(F)(F)F)c2)nc1Cl [Compound 10, 5-tert-Butyl-6-chloro-N-(3-trifluoromethylbenzyl)pyrazine-2-carboxamide] | 1.3638 | 25 (≈ 67.2 µM) | 36.3 | 16 | 6.25 | 25 (≈ 67.2 µM) | 250 (≈ 92.9 µg/mL) | 250 (≈ 92.9 µg/mL) | 25 (≈ 67.2 µM) | – | – | – | – |
| OC(Cn1cncn1)(Cn1cncn1)c1ccc(F)cc1F [FLU, fluconazole, reference compound] | – | – | – | – | – | – | 1.95 (≈ 0.597 µg/mL) | 3.91 (≈ 1.2 µg/mL) | – | – | – | – | – |
| O=C(NCc1cccc(C(F)(F)F)c1)c1cncc(Cl)n1 [Compound 6, 6-Chloro-N-(3-trifluoromethylbenzyl)pyrazine-2-carboxamide] | 0.4507 | 100 (≈ 317 µM) | 1210 | 39 | 12.5 | 100 (≈ 317 µM) | 62.5 (≈ 19.7 µg/mL) | 125 (≈ 39.5 µg/mL) | 25 (≈ 79.2 µM) | – | quenching of their fluorescence at 334 nm | – | – |
| CC(C)(C)c1ncc(C(=O)NCc2ccc(Cl)cc2)nc1Cl [Compound 11, 5-tert-Butyl-6-chloro-N-(4-chlorobenzyl)pyrazine-2-carboxamide] | 1.3511 | 50 (≈ 148 µM) | 13.4 | 36 | 12.5 | 50 (≈ 148 µM) | 250 (≈ 84.6 µg/mL) | 500 (≈ 169 µg/mL) | 50 (≈ 148 µM) | – | – | – | – |
| COc1ccc(CNC(=O)c2cnc(C(C)(C)C)c(Cl)n2)cc1 [Compound 12, 5-tert-Butyl-6-chloro-N-(4-methoxybenzyl)pyrazine-2-carboxamide] | 0.8071 | 6.25 (≈ 18.7 µM) | 122 | 18 | 6.25 | 3.12 (≈ 9.36 µM) | 250 (≈ 83.5 µg/mL) | 500 (≈ 167 µg/mL) | 12.5 (≈ 37.4 µM) | – | – | – | – |
| O=C(NCc1ccc(Cl)cc1)c1cncc(Cl)n1 [Compound 7, 6-Chloro-N-(4-chlorobenzyl)pyrazine-2-carboxamide] | 0.4335 | 12.5 (≈ 44.3 µM) | – | 44 | 12.5 | 100 (≈ 354 µM) | 125 (≈ 35.3 µg/mL) | 125 (≈ 35.3 µg/mL) | 100 (≈ 354 µM) | – | – | – | – |
| CC(C)(C)c1ncc(C(=O)NCc2ccccc2)nc1Cl [Compound 9, N-Benzyl-5-tert-butyl-6-chloropyrazine-2-carboxamide] | 1.1215 | 50 (≈ 165 µM) | 7.4 | 82 | 25 | 100 (≈ 329 µM) | 250 (≈ 75.9 µg/mL) | 500 (≈ 152 µg/mL) | 25 (≈ 82.3 µM) | – | – | – | – |
| COc1ccc(CNC(=O)c2cnc(Cl)cn2)cc1 [Compound 4, 5-Chloro-N-(4-methoxybenzyl)pyrazine-2-carboxamide] | 0.1655 | 50 (≈ 180 µM) | – | 90 | 25 | 100 (≈ 360 µM) | 250 (≈ 69.4 µg/mL) | 250 (≈ 69.4 µg/mL) | 100 (≈ 360 µM) | – | – | – | – |
| O=C(NCc1cccc(C(F)(F)F)c1)c1cnc(Cl)cn1 [Compound 2, 5-Chloro-N-(3-trifluoromethylbenzyl)pyrazine-2-carboxamide] | 0.4384 | 100 (≈ 317 µM) | 346 | 79 | 25 | 50 (≈ 158 µM) | 15.6 (≈ 4.93 µg/mL) | 15.6 (≈ 4.93 µg/mL) | 25 (≈ 79.2 µM) | – | – | decreased intensity of the emission band at 686 nm | 15.62/15.62 µmol/L |
| O=C(NCc1ccccc1)c1cncc(Cl)n1 [Compound 5, N-Benzyl-6-chloropyrazine-2-carboxamide] | 0.2002 | 100 (≈ 404 µM) | – | 50 | 12.5 | 50 (≈ 202 µM) | 250 (≈ 61.9 µg/mL) | 500 (≈ 124 µg/mL) | 100 (≈ 404 µM) | – | – | – | – |
| O=C(NCc1ccc(Cl)cc1)c1cnc(Cl)cn1 [Compound 3, 5-Chloro-N-(4-chlorobenzyl)pyrazine-2-carboxamide] | 0.4150 | 100 (≈ 354 µM) | 604 | 44 | 12.5 | 100 (≈ 354 µM) | 125 (≈ 35.3 µg/mL) | 125 (≈ 35.3 µg/mL) | 100 (≈ 354 µM) | – | – | – | – |
